Assay results from patent US11932636B2, “RAD51 inhibitors” (Cyteir Therapeutics, Inc., priority 2019, dated 2024).

What follows are molecules tested on Daudi cells (AID positive) (assay: Compound primary screening: cell death in AID positive Daudi cells (Cell-Titer Glo, Day 7)). Conditions: Homo sapiens, 168 h; Daudi cells, AID positive; cell death on Day 7, Cell-Titer Glo; read-out: Cellular activity in AID + (Daudi).
Type: cell-based
Procedure: Example 149. Compound Primary Screening
AID expressing cells are dependent upon RAD51 for survival; inhibiting RAD51 in AID positive cells results in a cytotoxic effect.
A 96 well u-bottom plate was prepared by writing the experiment number, plate number, date and initials in the top right corner of the plate lid. With a sterile 300 ml reservoir, and 25 ml serological pipette, evaporation buffer media was pipetted into reservoir in 25 ml increments. Using the liquid handler, 150 ul of evaporation buffer media was pipetted from reservoir into rows A and H, and Columns 1 and 12 of the 96 well u-bottom plate. Cell cultures were counted to obtain the density of cells per ml, and the culture viability. The cell density information was used to obtain 1,000,000 cells from culture using a 5 mL serological pipette into an epi tube. The cell density information from the culture was used to calculate the number of cells and volume of media needed for the assay to seed 1250 cells in 130 ul of media per available culture well in the 96 well u-bottom plate. Rows B through F were used for cells (50 wells in total), with row G left for an empty media control. The calculation was overestimated by 10 mL to account for the dead volume in the 300 ml reservoir. Once the media volume was calculated, the appropriate volume of media was pipetted in 25 mL increments into the 250 mL bottle using a 25 mL serological pipette. The 250 ml bottle was capped tightly, and placed into a 37° C. water bath for 2 minutes. While the culture media was warming, 10 mL of fresh media was pipetted from the 500 mL culture media bottle into a sterile 25 mL reservoir. Using the Eppendorf multichannel pipette, 130 ul of media was pipetted from the 25 mL reservoir into row G of the 96 well u-bottom plate. Once the 250 mL bottle of media was warmed, the volume of culture needed was pipetted into the bottle, and mixed gently with a 25 mL serological pipette as to not create bubbles, and then the contents of the bottle were pipetted into a new 300 mL reservoir. Using the liquid handler, 130 ul of culture was pipetted from the 300 mL reservoir into rows B through F of the 96 well u-bottom plate. Once the culture was added, the plate was placed into a 37° C. incubator until the compound master plate was prepared for use.
Two 96 well u-bottom plates were prepared by writing the master plate name in the upper right corner of the plate lid. Labeling one DMSO master and the other Media Master. The compounds of interest were obtained from the laboratory freezer, and placed into a 25 well storage box with a lid, and set the box aside. The compounds were vortexed after thawing but before use. Using an automatic multichannel pipette, 20 ul of 100% DMSO was pipetted into wells B3-B11 through G3-G11 of the DMSO master plate. For each compound on the master plate, 50 ul of the compound were pipetted in the appropriate well of row 2 (reference plate map to determine appropriate well). A serial dilution was prepared beginning by aspirating 20 ul from row 2 and mixing with row 3, repeating until row 11 was reached. Using the liquid handler, 194 ul of Daudi media was dispensed into wells B2-B11 through G2-G11 of the Media master plate. Using the liquid handler, 6 ul from the DMSO master plate was aspirated and dispensed into the media master plate, mixing 100 ul twice.
Compounds from master plate were then added to the culture plate. The culture plates were removed from the incubator, and set inside the biosafety cabinet. Using a liquid handler, 20 ul from wells B2 to B11 through G2 to G11 of master plate were aspirated, and dispensed into wells B2 to B11 through G2 to G11 of culture plate. This set was continued with each culture plate. Once the culture plates acquired their 20 ul of compound dilutions, they were placed back into the incubator, until their reads on Day 7 of experiment.
Cell death was measured on Day 7 of the experiment using Cell-Titer Glo and a Promega Plate reader.
`CC(C)NC(=O)Cc1ccc(-c2cnc([C@H]3CC[C@H](NC(=O)OC(C)C)CC3)s2)c(S(=O)(=O)NC(C)(C)C)c1` [Compound 40, isopropyl trans-N-[4-[5-[2-(tert-butylsulfamoyl)-4-[2-(isopropylamino)-2-oxo-ethyl]phenyl]thiazol-2-yl]cyclohexyl]carbamate] was tested, and the EC50 was < 100 nM.
`CCNS(=O)(=O)c1cc(N2CCOCC2)ccc1-c1cnc([C@H]2CC[C@H](NC(=O)OC(C)C)CC2)s1` [Compound 134, isopropyl trans-N-[4-[5-[2-(ethylsulfamoyl)-4-[morpholino]phenyl]thiazol-2-yl]cyclohexyl]carbamate] was tested, and the EC50 was 100 to 1000 nM.
`CCNS(=O)(=O)c1cc(Nc2ncco2)ccc1-c1cnc([C@H]2CC[C@H](NC(=O)OC(C)C)CC2)s1` [Compound 60, isopropyl (trans-4-(5-(2-(N-ethylsulfamoyl)-4-(oxazol-2-ylamino)phenyl)thiazol-2-yl)cyclohexyl)carbamate] was tested, and the EC50 was < 100 nM.
Molecule `CCNS(=O)(=O)c1cc(Cc2ncc[nH]2)ccc1-c1cnc([C@H]2CC[C@H](NC(=O)OC(C)C)CC2)s1` [Compound 78, isopropyl trans-N-[4-[5-[2-(ethylsulfamoyl)-4-(1H-imidazol-2-ylmethyl)phenyl]thiazol-2-yl]cyclohexyl]carbamate] has an EC50 of 1000 to 10000 nM.
For `CCNS(=O)(=O)c1cc(Nc2ncccn2)ccc1-c1cnc([C@H]2CC[C@H](NC(=O)OC(C)C)CC2)s1` [Compound 127, isopropyl trans-N-[4-[5-[2-(ethylsulfamoyl)-4-[(pyrimidin-2-yl)amino]phenyl]thiazol-2-yl]cyclohexyl]carbamate], the EC50 was 100 to 1000 nM.
With `CCNS(=O)(=O)c1cc(Nc2ccccn2)ccc1-c1cnc([C@H]2CC[C@H](NC(=O)OC(C)C)CC2)s1` [Compound 126, isopropyl trans-N-[4-[5-[2-(ethylsulfamoyl)-4-[(pyridin-2-yl)amino]phenyl]thiazol-2-yl]cyclohexyl]carbamate] the EC50 was < 100 nM.
For `CCNS(=O)(=O)c1cc(CNc2ncco2)ccc1-c1cnc([C@H]2CC[C@H](NC(=O)OC(C)C)CC2)s1` [Compound 74, isopropyl trans-N-[4-[5-[2-(ethylsulfamoyl)-4-[(oxazol-2-ylamino)methyl]phenyl]thiazol-2-yl]cyclohexyl]carbamate], the EC50 was 100 to 1000 nM.
In the case of `CCNS(=O)(=O)c1ccccc1-c1cnc([C@H]2CC[C@H](NC(=O)OC(C)C)CC2)s1` [Compound 45, isopropyl (trans-4-(5-(2-(N-ethylsulfamoyl)phenyl)thiazol-2-yl)cyclohexyl)carbamate], the EC50 is reported as 1000 to 10000 nM.
For `CCNS(=O)(=O)c1cc(CC(N)=O)ccc1-c1cnc([C@H]2CC[C@H](NC(=O)OC(C)C)CC2)s1` [Compound 86, isopropyl trans-N-[4-[5-[4-[2-amino-2-oxo-ethyl]-2-(ethyl-sulfamoyl)phenyl]thiazol-2-yl]cyclohexyl]carbamate], the EC50 was 100 to 1000 nM.
`CC(C)OC(=O)N[C@H]1CC[C@H](c2ncc(-c3ccccc3S(N)(=O)=O)s2)CC1` [Compound 44, isopropyl trans-N-[4-[5-(2-sulfamoylphenyl)thiazol-2-yl]cyclohexyl]carbamate] gave an EC50 of 1000 to 10000 nM.
For `CC(C)OC(=O)N[C@H]1CC[C@H](c2ncc(-c3ccc(-c4ccc(C#N)nc4)cc3S(=O)(=O)NC(C)(C)C)s2)CC1` [Compound 18, isopropyl (trans-4-(5-(2-(N-(tert-butyl)sulfamoyl)-4-(6-cyanopyridin-3-yl)phenyl)thiazol-2-yl)cyclohexyl)carbamate], the EC50 was 1000 to 10000 nM.

Same assay, conditions: Homo sapiens, Daudi, 168 h, read-out: Cellular activity in AID + (Daudi)
In the case of `CCNS(=O)(=O)c1cc(Cc2ncco2)ccc1-c1cnc([C@H]2CC[C@H](NC(=O)OC(C)C)CC2)s1` [Compound 103, isopropyl trans-N-[4-[5-[2-(ethylsulfamoyl)-4-(oxazol-2-ylmethyl)phenyl]thiazol-2-yl]cyclohexyl]carbamate], the EC50 is reported as 100 to 1000 nM.
`CCNS(=O)(=O)c1cc(Nc2ncc(C)[nH]2)ccc1-c1cnc([C@H]2CC[C@H](NC(=O)OC(C)C)CC2)s1` [Compound 141, isopropyl trans-N-[4-[5-[2-(ethylsulfamoyl)-4-[(5-methyl-1H-imidazol-2-yl)amino]phenyl]thiazol-2-yl]cyclohexyl]carbamate] gave an EC50 of 1000 to 10000 nM.
